Results from US10638959B2, “Oral pH and buffering capacity modifiers” (CAO Group, LLC, priority 2010, dated 2020).
Entries after “also recorded” stand apart in the source; their conditions may differ.

Assay: Immediate release of calcium ion of various salts by a calcium test kit by EM Quant
Type: physicochemical
Conditions: contact with water

Molecule	Immediate release of calcium ion (availability of calcium ion)
CC(O)C(=O)[O-].CC(O)C(=O)[O-].O.O.O.O.O.[Ca+2] (centres unmarked) [Calcium lactate pentahydrate]	most readily available calcium ion source
Calcium ascorbate [Calcium ascorbate (citrate)]	most readily available calcium ion source; also recorded: provided calcium ions on contact with water
